Test system: 521955-158-R2-J5-PDC complex spheroid growth
Assay: Anticancer human tumor 521955-158-R2-J5-PDC patient-derived pancreatic carcinoma cell line growth inhibition [AhR]
Conditions: for IC50: curve of first compound; for viability, T/C: stronger effect = lower value
How it was run: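 Spheroids combined tumor cells with HUVEC endothelial cells and human MSCs as stroma. AhR antagonists were paired with standard or investigational drugs, each dosed in half-log steps down from near clinical Cmax, or from 10 microM where Cmax was unknown.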

[1] = second compound 0.1 µM, first compound 0.00949 µM
[2] = second compound 0.1 µM, first compound 0.03 µM
[3] = second compound 0.1 µM, first compound 0.0949 µM
[4] = second compound 0.1 µM, first compound 0.3 µM
[5] = second compound 0.316 µM, first compound 0.00949 µM
[6] = second compound 0.316 µM, first compound 0.03 µM
[7] = second compound 0.316 µM, first compound 0.0949 µM
[8] = second compound 0.316 µM, first compound 0.3 µM
[9] = second compound 1 µM, first compound 0.00949 µM
[10] = second compound 1 µM, first compound 0.03 µM
[11] = second compound 1 µM, first compound 0.0949 µM
[12] = second compound 1 µM, first compound 0.3 µM
[13] = second compound 3.16 µM, first compound 0.00949 µM
[14] = second compound 3.16 µM, first compound 0.03 µM
[15] = second compound 3.16 µM, first compound 0.0949 µM
[16] = second compound 3.16 µM, first compound 0.3 µM
[17] = second compound 10 µM, first compound 0.00949 µM
[18] = second compound 10 µM, first compound 0.03 µM
[19] = second compound 10 µM, first compound 0.0949 µM
[20] = second compound 10 µM, first compound 0.3 µM
[21] = second compound 0.1 µM, first compound 0.0316 µM
[22] = second compound 0.1 µM, first compound 0.1 µM
[23] = second compound 0.1 µM, first compound 0.316 µM
[24] = second compound 0.1 µM, first compound 1 µM
[25] = second compound 0.316 µM, first compound 0.0316 µM
[26] = second compound 0.316 µM, first compound 0.1 µM
[27] = second compound 0.316 µM, first compound 0.316 µM
[28] = second compound 0.316 µM, first compound 1 µM
[29] = second compound 1 µM, first compound 0.0316 µM
[30] = second compound 1 µM, first compound 0.1 µM
[31] = second compound 1 µM, first compound 0.316 µM
[32] = second compound 1 µM, first compound 1 µM
[33] = second compound 3.16 µM, first compound 0.0316 µM
[34] = second compound 3.16 µM, first compound 0.1 µM
[35] = second compound 3.16 µM, first compound 0.316 µM
[36] = second compound 3.16 µM, first compound 1 µM
[37] = second compound 10 µM, first compound 0.0316 µM
[38] = second compound 10 µM, first compound 0.1 µM
[39] = second compound 10 µM, first compound 0.316 µM
[40] = second compound 10 µM, first compound 1 µM
[41] = second compound 0.1 µM, first compound 3.16 µM
[42] = second compound 0.1 µM, first compound 10 µM
[43] = second compound 0.316 µM, first compound 3.16 µM
[44] = second compound 0.316 µM, first compound 10 µM
[45] = second compound 1 µM, first compound 3.16 µM
[46] = second compound 1 µM, first compound 10 µM
[47] = second compound 3.16 µM, first compound 3.16 µM
[48] = second compound 3.16 µM, first compound 10 µM
[49] = second compound 10 µM, first compound 3.16 µM
[50] = second compound 10 µM, first compound 10 µM
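For viability, T/C in this document: spheroids mix tumor cells with HUVEC endothelium and human MSC stroma; luminescence taken as viability surrogate after a week of drug exposure.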

CCc1c2c(nc3ccc(O)cc13)-c1cc3c(c(=O)n1C2)COC(=O)[C@]3(O)CC + Cc1cncc(-c2nc(NCCc3c[nH]c4ccccc34)c3ncn(C(C)C)c3n2)c1
IC50 (second compound 0.1 µM): 4.04 nM
IC50 (second compound 0.316 µM): 3.98 nM
IC50 (second compound 1 µM): 4.17 nM
IC50 (second compound 3.16 µM): 4.21 nM
IC50 (second compound 10 µM): 3 nM
viability, T/C (second compound 0.1 µM, first compound 0.000949 µM): 78.5%
viability, T/C (second compound 0.1 µM, first compound 0.003 µM): 58.6%
viability, T/C [1]: 25.2%
viability, T/C [2]: 16.5%
viability, T/C [3]: 14.9%
viability, T/C [4]: 12.5%
viability, T/C (second compound 0.316 µM, first compound 0.000949 µM): 70.1%
viability, T/C (second compound 0.316 µM, first compound 0.003 µM): 57.8%
viability, T/C [5]: 26.5%
viability, T/C [6]: 18%
viability, T/C [7]: 12.4%
viability, T/C [8]: 12.3%
viability, T/C (second compound 1 µM, first compound 0.000949 µM): 90.1%
viability, T/C (second compound 1 µM, first compound 0.003 µM): 60%
viability, T/C [9]: 24.5%
viability, T/C [10]: 21%
viability, T/C [11]: 16.4%
viability, T/C [12]: 15.2%
viability, T/C (second compound 3.16 µM, first compound 0.000949 µM): 70.4%
viability, T/C (second compound 3.16 µM, first compound 0.003 µM): 58.7%
viability, T/C [13]: 29.7%
viability, T/C [14]: 18.2%
viability, T/C [15]: 16.7%
viability, T/C [16]: 10.5%
viability, T/C (second compound 10 µM, first compound 0.000949 µM): 98.9%
viability, T/C (second compound 10 µM, first compound 0.003 µM): 49.8%
viability, T/C [17]: 24.1%
viability, T/C [18]: 15.3%
viability, T/C [19]: 8.29%
viability, T/C [20]: 4.78%

CCN(c1cc(-c2ccc(CN3CCOCC3)cc2)cc(C(=O)NCc2c(C)cc(C)[nH]c2=O)c1C)C1CCOCC1 + CC(CO)NC(=O)c1cc(-c2ccc(Cl)cc2)nn(-c2cnn(C)c2)c1=O
IC50 (second compound 0.1 µM): > 3000 nM
IC50 (second compound 0.316 µM): > 3000 nM
IC50 (second compound 1 µM): > 3000 nM
IC50 (second compound 3.16 µM): > 3000 nM
IC50 (second compound 10 µM): > 3000 nM
viability, T/C [1]: 121%
viability, T/C [2]: 110%
viability, T/C [3]: 102%
viability, T/C [4]: 80.8%
viability, T/C (second compound 0.1 µM, first compound 0.949 µM): 81.1%
viability, T/C (second compound 0.1 µM, first compound 3 µM): 102%
viability, T/C [5]: 103%
viability, T/C [6]: 103%
viability, T/C [7]: 97.4%
viability, T/C [8]: 101%
viability, T/C (second compound 0.316 µM, first compound 0.949 µM): 87.6%
viability, T/C (second compound 0.316 µM, first compound 3 µM): 86.5%
viability, T/C [9]: 105%
viability, T/C [10]: 93.7%
viability, T/C [11]: 129%
viability, T/C [12]: 94.5%
viability, T/C (second compound 1 µM, first compound 0.949 µM): 72.5%
viability, T/C (second compound 1 µM, first compound 3 µM): 82.6%
viability, T/C [13]: 90.6%
viability, T/C [14]: 79.3%
viability, T/C [15]: 99.1%
viability, T/C [16]: 86.7%
viability, T/C (second compound 3.16 µM, first compound 0.949 µM): 74%
viability, T/C (second compound 3.16 µM, first compound 3 µM): 91%
viability, T/C [17]: 91%
viability, T/C [18]: 96.8%
viability, T/C [19]: 84.9%
viability, T/C [20]: 77.4%
viability, T/C (second compound 10 µM, first compound 0.949 µM): 74.4%
viability, T/C (second compound 10 µM, first compound 3 µM): 60.7%

CC1COCCN1c1cc(-c2ccnn2C)c2ccnc(-c3ccn[nH]3)c2n1 (stereo not given) + CC(CO)NC(=O)c1cc(-c2ccc(Cl)cc2)nn(-c2cnn(C)c2)c1=O
IC50 (second compound 0.1 µM): 88.1 nM
IC50 (second compound 0.316 µM): 106 nM
IC50 (second compound 1 µM): 81.3 nM
IC50 (second compound 3.16 µM): 67.7 nM
IC50 (second compound 10 µM): 37.8 nM
viability, T/C (second compound 0.1 µM, first compound 0.00316 µM): 91.6%
viability, T/C (second compound 0.1 µM, first compound 0.01 µM): 121%
viability, T/C [21]: 98.3%
viability, T/C [22]: 44.3%
viability, T/C [23]: 11.2%
viability, T/C [24]: 14.6%
viability, T/C (second compound 0.316 µM, first compound 0.00316 µM): 141%
viability, T/C (second compound 0.316 µM, first compound 0.01 µM): 126%
viability, T/C [25]: 110%
viability, T/C [26]: 54.5%
viability, T/C [27]: 8.67%
viability, T/C [28]: 13.1%
viability, T/C (second compound 1 µM, first compound 0.00316 µM): 93%
viability, T/C (second compound 1 µM, first compound 0.01 µM): 115%
viability, T/C [29]: 120%
viability, T/C [30]: 37%
viability, T/C [31]: 8.65%
viability, T/C [32]: 13.6%
viability, T/C (second compound 3.16 µM, first compound 0.00316 µM): 115%
viability, T/C (second compound 3.16 µM, first compound 0.01 µM): 102%
viability, T/C [33]: 94.4%
viability, T/C [34]: 27.6%
viability, T/C [35]: 8.07%
viability, T/C [36]: 12.1%
viability, T/C (second compound 10 µM, first compound 0.00316 µM): 93.5%
viability, T/C (second compound 10 µM, first compound 0.01 µM): 89.5%
viability, T/C [37]: 55.8%
viability, T/C [38]: 17.8%
viability, T/C [39]: 7.29%
viability, T/C [40]: 12.2%

O=C(c1cc(Cc2n[nH]c(=O)c3ccccc23)ccc1F)N1CCN(C(=O)C2CC2)CC1 + CC(CO)NC(=O)c1cc(-c2ccc(Cl)cc2)nn(-c2cnn(C)c2)c1=O
IC50 (second compound 0.1 µM): > 10000 nM
IC50 (second compound 0.316 µM): > 10000 nM
IC50 (second compound 1 µM): > 10000 nM
IC50 (second compound 3.16 µM): > 10000 nM
IC50 (second compound 10 µM): > 10000 nM
viability, T/C [21]: 116%
viability, T/C [22]: 107%
viability, T/C [23]: 116%
viability, T/C [24]: 85.6%
viability, T/C [41]: 76.7%
viability, T/C [42]: 75.3%
viability, T/C [25]: 102%
viability, T/C [26]: 119%
viability, T/C [27]: 93.7%
viability, T/C [28]: 101%
viability, T/C [43]: 73.2%
viability, T/C [44]: 71.3%
viability, T/C [29]: 101%
viability, T/C [30]: 104%
viability, T/C [31]: 110%
viability, T/C [32]: 88.7%
viability, T/C [45]: 83.7%
viability, T/C [46]: 72.6%
viability, T/C [33]: 91.9%
viability, T/C [34]: 128%
viability, T/C [35]: 110%
viability, T/C [36]: 97.7%
viability, T/C [47]: 85.4%
viability, T/C [48]: 70.5%
viability, T/C [37]: 68.5%
viability, T/C [38]: 82.6%
viability, T/C [39]: 87.4%
viability, T/C [40]: 79.9%
viability, T/C [49]: 70.6%
viability, T/C [50]: 50.5%

COc1cc(Nc2ncc3c(n2)-c2ccc(Cl)cc2C(c2c(F)cccc2OC)=NC3)ccc1C(=O)O + Cc1cncc(-c2nc(NCCc3c[nH]c4ccccc34)c3ncn(C(C)C)c3n2)c1
IC50 (second compound 0.1 µM): > 10000 nM
IC50 (second compound 0.316 µM): > 10000 nM
IC50 (second compound 1 µM): > 10000 nM
IC50 (second compound 3.16 µM): > 10000 nM
IC50 (second compound 10 µM): > 10000 nM
viability, T/C [21]: 100%
viability, T/C [22]: 78.8%
viability, T/C [23]: 78.8%
viability, T/C [24]: 72.3%
viability, T/C [41]: 80.1%
viability, T/C [42]: 74.2%
viability, T/C [25]: 99.7%
viability, T/C [26]: 79.9%
viability, T/C [27]: 87.1%
viability, T/C [28]: 73.1%
viability, T/C [43]: 68%
viability, T/C [44]: 60.9%
viability, T/C [29]: 109%
viability, T/C [30]: 88.5%
viability, T/C [31]: 103%
viability, T/C [32]: 83.2%
viability, T/C [45]: 70.7%
viability, T/C [46]: 70.4%
viability, T/C [33]: 127%
viability, T/C [34]: 107%
viability, T/C [35]: 97.5%
viability, T/C [36]: 90.8%
viability, T/C [47]: 83%
viability, T/C [48]: 76.7%
viability, T/C [37]: 125%
viability, T/C [38]: 88.4%
viability, T/C [39]: 76.2%
viability, T/C [40]: 84.3%
viability, T/C [49]: 62.8%
viability, T/C [50]: 81.3%
